The target of assay [1] is T1, Ikaros (Homo sapiens, UniProt Q13422).
T1 construct: fluorescently labelled antibodies against Helios and Ikaros; endogenous in cells; host or cells: Jurkat cells
Put plainly: Helios Cellular Degradation Assay, Ikaros readout (flow cytometry, Ikaros-Alexa488 antibody staining, 72 h). Particulars: Jurkat cells, 72 h incubation, flow cytometry; for Dmax: Jurkat, read-out: Ikaros Dmax. It counts as cell-based. The procedure, abridged: (§1)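 Jurkat cells (80,000/well, RPMI+10% FBS) were exposed to compound for 72 h at 37 °C, then fixed, permeabilized and co-stained for 1 h with Ikaros-Alexa488 and Helios-PE antibodies. Intracellular protein levels were read by flow cytometry.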
Background: Flow cytometry measures light scatter and fluorescence of single cells or particles in a stream.

Assay [2] concerns the target T2, Helios (Homo sapiens, UniProt Q96SW2+Q9UKS7).
T2 construct: fluorescently labelled antibodies against Helios and Ikaros; endogenous in cells; host or cells: Jurkat cells
The experiment in a line: Helios Cellular Degradation Assay (flow cytometry, Helios-PE antibody staining, 72 h). The class given is cell-based. To be noted: Jurkat cells, 72 h incubation, flow cytometry; for Dmax: Jurkat, read-out: Helios Dmax. In a few lines:
as §1

We go through 24 compounds from patent US11548870B2, “Compounds useful as inhibitors of helios protein” (Bristol-Myers Squibb Company, priority 2019, dated 2023).

Some results are limits rather than exact numbers.

One may read the DC50 as the concentration giving 50% degradation. What is called Dmax is the greatest extent of degradation seen.

T2 sequence (Q9UKS7 whole entry): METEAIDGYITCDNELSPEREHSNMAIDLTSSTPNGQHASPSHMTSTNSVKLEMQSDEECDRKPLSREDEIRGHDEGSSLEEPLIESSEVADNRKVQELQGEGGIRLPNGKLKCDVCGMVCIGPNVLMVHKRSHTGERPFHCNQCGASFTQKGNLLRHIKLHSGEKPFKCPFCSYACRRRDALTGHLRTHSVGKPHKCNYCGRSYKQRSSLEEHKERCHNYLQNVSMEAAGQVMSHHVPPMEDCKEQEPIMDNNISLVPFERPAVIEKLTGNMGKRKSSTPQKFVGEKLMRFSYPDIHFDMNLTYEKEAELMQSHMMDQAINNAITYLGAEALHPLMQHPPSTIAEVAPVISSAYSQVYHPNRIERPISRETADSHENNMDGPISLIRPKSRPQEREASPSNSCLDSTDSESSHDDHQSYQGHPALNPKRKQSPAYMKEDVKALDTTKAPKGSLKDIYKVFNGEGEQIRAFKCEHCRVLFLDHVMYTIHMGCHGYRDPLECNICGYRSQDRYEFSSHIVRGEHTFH
T2 sequence (Q96SW2 whole entry): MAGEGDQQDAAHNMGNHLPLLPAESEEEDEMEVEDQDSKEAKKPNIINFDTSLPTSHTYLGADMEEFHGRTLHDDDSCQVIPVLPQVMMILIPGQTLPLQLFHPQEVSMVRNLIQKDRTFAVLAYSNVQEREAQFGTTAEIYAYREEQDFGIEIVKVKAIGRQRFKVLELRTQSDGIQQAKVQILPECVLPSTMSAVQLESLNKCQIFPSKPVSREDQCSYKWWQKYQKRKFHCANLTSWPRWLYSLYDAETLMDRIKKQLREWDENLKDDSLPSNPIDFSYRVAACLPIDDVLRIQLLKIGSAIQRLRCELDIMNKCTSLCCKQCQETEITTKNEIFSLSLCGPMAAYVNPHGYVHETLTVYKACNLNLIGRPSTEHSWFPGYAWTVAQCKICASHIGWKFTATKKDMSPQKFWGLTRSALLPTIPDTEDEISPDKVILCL
T2 sequence (Q16531 whole entry partner): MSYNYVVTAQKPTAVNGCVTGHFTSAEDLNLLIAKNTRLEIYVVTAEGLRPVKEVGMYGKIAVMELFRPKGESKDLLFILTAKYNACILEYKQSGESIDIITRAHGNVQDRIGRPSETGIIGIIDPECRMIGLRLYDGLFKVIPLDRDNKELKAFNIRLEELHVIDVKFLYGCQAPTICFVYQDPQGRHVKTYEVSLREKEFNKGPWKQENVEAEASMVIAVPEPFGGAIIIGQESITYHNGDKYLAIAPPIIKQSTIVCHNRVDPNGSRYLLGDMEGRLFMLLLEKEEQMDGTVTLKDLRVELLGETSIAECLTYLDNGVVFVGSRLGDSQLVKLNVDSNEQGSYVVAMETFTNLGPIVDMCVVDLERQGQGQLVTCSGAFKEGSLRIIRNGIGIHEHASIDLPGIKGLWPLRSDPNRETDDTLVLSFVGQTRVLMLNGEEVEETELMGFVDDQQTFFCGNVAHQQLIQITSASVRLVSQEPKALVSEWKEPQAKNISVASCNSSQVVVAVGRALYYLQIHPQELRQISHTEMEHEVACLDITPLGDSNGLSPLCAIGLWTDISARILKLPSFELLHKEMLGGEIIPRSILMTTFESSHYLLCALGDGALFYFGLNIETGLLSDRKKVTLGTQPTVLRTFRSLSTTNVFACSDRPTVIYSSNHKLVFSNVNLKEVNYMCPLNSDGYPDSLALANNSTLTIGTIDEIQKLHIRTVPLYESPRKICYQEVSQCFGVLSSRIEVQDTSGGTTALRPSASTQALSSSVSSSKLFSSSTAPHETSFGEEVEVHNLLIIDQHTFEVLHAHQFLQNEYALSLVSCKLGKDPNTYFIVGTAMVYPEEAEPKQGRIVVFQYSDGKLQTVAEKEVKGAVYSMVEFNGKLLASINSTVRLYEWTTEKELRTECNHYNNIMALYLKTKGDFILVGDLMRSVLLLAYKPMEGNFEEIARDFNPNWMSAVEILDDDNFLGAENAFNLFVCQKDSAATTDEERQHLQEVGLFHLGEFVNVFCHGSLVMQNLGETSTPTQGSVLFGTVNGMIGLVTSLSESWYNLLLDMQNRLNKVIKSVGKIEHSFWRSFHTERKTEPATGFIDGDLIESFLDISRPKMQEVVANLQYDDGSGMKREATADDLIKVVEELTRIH
T1 sequence (Q96SW2 whole entry partner): as the sequence (Q96SW2 whole entry) above
T1 sequence (Q16531 whole entry partner): as the sequence (Q16531 whole entry partner) above
T1 sequence (Q13422 whole entry): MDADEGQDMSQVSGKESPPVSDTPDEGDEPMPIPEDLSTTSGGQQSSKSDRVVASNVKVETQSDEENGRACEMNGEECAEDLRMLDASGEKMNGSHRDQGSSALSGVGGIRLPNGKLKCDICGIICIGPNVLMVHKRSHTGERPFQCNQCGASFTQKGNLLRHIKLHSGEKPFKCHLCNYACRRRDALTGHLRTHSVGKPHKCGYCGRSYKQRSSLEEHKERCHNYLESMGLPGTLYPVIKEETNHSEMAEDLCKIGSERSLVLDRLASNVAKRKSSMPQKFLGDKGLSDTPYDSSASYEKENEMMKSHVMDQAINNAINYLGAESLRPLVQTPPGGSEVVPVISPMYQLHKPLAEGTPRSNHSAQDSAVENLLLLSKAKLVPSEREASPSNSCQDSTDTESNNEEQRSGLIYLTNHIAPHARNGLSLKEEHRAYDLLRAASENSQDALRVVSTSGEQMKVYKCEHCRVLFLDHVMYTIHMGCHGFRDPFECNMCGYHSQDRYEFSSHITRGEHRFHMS

Regarding `CC1CN(Cc2ccnc(-c3ccc4c(c3)CN(C3CCC(=O)NC3=O)C4=O)c2)C1` (stereo not drawn) [Example 47, 3-(5-(4-((3-methylazetidin-1-yl)methyl)pyridin-2-yl)-1-oxoisoindolin-2-yl)piperidine-2,6-dione], in assay [1], the DC50 is > 10000 nM and the Dmax stood at 8%. Besides, in assay [2], half-maximal degradation (DC50) was put at 17 nM and the Dmax amounted to 79%.
For `O=C1CCC(N2Cc3cc(-c4cc(CN5CCCCCC5)ccn4)ccc3C2=O)C(=O)N1` (stereo not drawn) [Example 48, 3-(5-(4-(azepan-1-ylmethyl)pyridin-2-yl)-1-oxoisoindolin-2-yl)piperidine-2,6-dione], the results for the DC50 in assay [1] and in assay [2] were > 10000 nM and 32 nM, respectively. Besides, the Dmax in assay [1] worked out at 6%; in assay [2] it was 72%.
Consider `CN1CCC(N(C)Cc2ccnc(-c3ccc4c(c3)CN(C3CCC(=O)NC3=O)C4=O)c2)C1` (stereo not drawn) [Example 49, 3-(5-(4-((methyl(1-methylpyrrolidin-3-yl)amino)methyl)pyridin-2-yl)-1-oxoisoindolin-2-yl)piperidine-2,6-dione], for which, in assay [1], the DC50 is > 10000 nM and the “Ikaros Dmax” value is listed as 3%. Also, in assay [2], the DC50 is > 10000 nM and the “Helios Dmax” value is reported as 29%.
As to `CCN(CC)Cc1ccnc(-c2ccc3c(c2)CN(C2CCC(=O)NC2=O)C3=O)c1` (stereo not drawn) [Example 50, 3-(5-(4-((diethylamino)methyl)pyridin-2-yl)-1-oxoisoindolin-2-yl)piperidine-2,6-dione], the results for the DC50 in assay [1] and in assay [2] were > 10000 nM and 22 nM, respectively. The Dmax amounted to 12% in assay [1] and 78% in assay [2].
For the compound `CC1(C)CN(Cc2ccnc(-c3ccc4c(c3)CN(C3CCC(=O)NC3=O)C4=O)c2)C1` (stereo not drawn) [Example 51, 3-(5-(4-((3,3-dimethylazetidin-1-yl)methyl)pyridin-2-yl)-1-oxoisoindolin-2-yl)piperidine-2,6-dione], in assay [1], the DC50 was > 10000 nM and the Dmax was 11%. In assay [2], the DC50 was 64 nM and the Dmax was 70%.
Take `CC1(C)CCN1Cc1ccnc(-c2ccc3c(c2)CN(C2CCC(=O)NC2=O)C3=O)c1` (stereo not drawn) [Example 52, 3-(5-(4-((2,2-dimethylazetidin-1-yl)methyl)pyridin-2-yl)-1-oxoisoindolin-2-yl)piperidine-2,6-dione]: the results for the DC50 in assay [1] and in assay [2] were > 10000 nM and 300 nM, respectively. In addition, the Dmax in assay [1] amounted to 10%; in assay [2], 67%.
The matching figures for `CC1CCCC(C)N1Cc1ccnc(-c2ccc3c(c2)CN(C2CCC(=O)NC2=O)C3=O)c1` (stereo not drawn) [Example 53, 3-(5-(4-((2,6-dimethylpiperidin-1-yl)methyl)pyridin-2-yl)-1-oxoisoindolin-2-yl)piperidine-2,6-dione]: > 10000 nM, 231 nM, 21% and 77%.
Turning to `O=C1CCC(N2Cc3cc(-c4cc(CNCC5CCCCC5)ccn4)ccc3C2=O)C(=O)N1` (stereo not drawn) [Example 54, 3-(5-(4-(((cyclohexylmethyl)amino)methyl)pyridin-2-yl)-1-oxoisoindolin-2-yl)piperidine-2,6-dione], in assay [1], the DC50 was > 10000 nM and the Dmax worked out at 12%. Also, in assay [2], the 50% degradation concentration (DC50) was 16 nM and the Dmax was found to be 83%.
Take `CC(NCc1ccnc(-c2ccc3c(c2)CN(C2CCC(=O)NC2=O)C3=O)c1)c1ccccc1` (stereo not drawn) [Example 55, 3-(1-oxo-5-(4-(((1-phenylethyl)amino)methyl)pyridin-2-yl)isoindolin-2-yl) piperidine-2,6-dione]: in assay [1], the DC50 was > 10000 nM and the Dmax was 10%. Also, in assay [2], half-maximal degradation (DC50) was put at 9 nM and the maximal degradation (Dmax) was determined as 91%.
With `Cc1ccccc1CNCc1ccnc(-c2ccc3c(c2)CN(C2CCC(=O)NC2=O)C3=O)c1` (stereo not drawn) [Example 56, 3-(5-(4-(((2-methylbenzyl)amino)methyl)pyridin-2-yl)-1-oxoisoindolin-2-yl)piperidine-2,6-dione], in assay [1], the 50% degradation concentration (DC50) is > 10000 nM and the greatest degradation seen (Dmax) came out at 18%. Besides, in assay [2], it took 13 nM to reach half-maximal degradation (DC50) and the Dmax was found to be 88%.
Turning to `Cc1cccc(CNCc2ccnc(-c3ccc4c(c3)CN(C3CCC(=O)NC3=O)C4=O)c2)c1` (stereo not drawn) [Example 57, 3-(5-(4-(((3-methylbenzyl)amino)methyl)pyridin-2-yl)-1-oxoisoindolin-2-yl)piperidine-2,6-dione], the DC50 in assay [1] and in assay [2] was > 10000 nM throughout. Further, the maximal degradation (Dmax) was determined as 0% in assay [1] and 32% in assay [2].
For `Cc1ccc(CNCc2ccnc(-c3ccc4c(c3)CN(C3CCC(=O)NC3=O)C4=O)c2)cc1` (stereo not drawn) [Example 58, 3-(5-(4-(((4-methylbenzyl)amino)methyl)pyridin-2-yl)-1-oxoisoindolin-2-yl)piperidine-2,6-dione], the DC50 in assay [1] is > 10000 nM; in assay [2] it was 9 nM. For the same compound, the values for the Dmax in assay [1] and in assay [2] were 22% and 88%, respectively.
Turning to `CN(Cc1ccnc(-c2ccc3c(c2)CN(C2CCC(=O)NC2=O)C3=O)c1)CC1CCCCC1` (stereo not drawn) [Example 59, 3-(5-(4-(((cyclohexylmethyl)(methyl)amino)methyl)pyridin-2-yl)-1-oxoisoindolin-2-yl) piperidine-2,6-dione], in assay [1], the half-maximal degradation concentration (DC50) was > 10000 nM and the Dmax was determined as 20%. Also, in assay [2], the DC50 stood at 82 nM and the Dmax amounted to 79%.
In the same order, the values of `O=C1CCC(N2Cc3cc(-c4cc(CN5CCC6CCCC65)ccn4)ccc3C2=O)C(=O)N1` (stereo not drawn) [Example 60, 3-(5-(4-((hexahydrocyclopenta[b]pyrrol-1(2H)-yl)methyl)pyridin-2-yl)-1-oxoisoindolin-2-yl) piperidine-2,6-dione] are > 10000 nM, 19%, 548 nM and 63%.
As to `CCCCNCc1ccnc(-c2ccc3c(c2)CN(C2CCC(=O)NC2=O)C3=O)c1` (stereo not drawn) [Example 61, 3-(5-(4-((butylamino)methyl)pyridin-2-yl)-1-oxoisoindolin-2-yl)piperidine-2,6-dione], the DC50 in assay [1] was > 10000 nM; in assay [2], 12 nM. In addition, the Dmax in assay [1] came out at 5%; in assay [2] it was 83%.
As for `CCCNCc1ccnc(-c2ccc3c(c2)CN(C2CCC(=O)NC2=O)C3=O)c1` (stereo not drawn) [Example 62, 3-(1-oxo-5-(4-((propylamino)methyl)pyridin-2-yl)isoindolin-2-yl)piperidine-2,6-dione], the DC50 in assay [1] is > 10000 nM; in assay [2] it was 45 nM. In addition, the Dmax came to 5% in assay [1] and 80% in assay [2].
In the case of `O=C1CCC(N2Cc3cc(-c4cc(CNCCc5ccccc5)ccn4)ccc3C2=O)C(=O)N1` (stereo not drawn) [Example 63, 3-(1-oxo-5-(4-((phenethylamino)methyl)pyridin-2-yl)isoindolin-2-yl)piperidine-2,6-dione], in assay [1], the DC50 is > 10000 nM and the Dmax turned out to be 13%. Further, in assay [2], the DC50 worked out at 14 nM and the Dmax was 80%.
Take `O=C1CCC(N2Cc3cc(-c4cc(CNCC5CC5)ccn4)ccc3C2=O)C(=O)N1` (stereo not drawn) [Example 64, 3-(5-(4-(((cyclopropylmethyl)amino)methyl)pyridin-2-yl)-1-oxoisoindolin-2-yl)piperidine-2,6-dione]: in assay [1], the DC50 is > 10000 nM and the Dmax is 1%. For the same compound, in assay [2], the half-maximal degradation concentration (DC50) is 36 nM and the maximal degradation (Dmax) turned out to be 73%.
For the compound `CC(C)(C)CNCc1ccnc(-c2ccc3c(c2)CN(C2CCC(=O)NC2=O)C3=O)c1` (stereo not drawn) [Example 65, 3-(5-(4-((neopentylamino)methyl)pyridin-2-yl)-1-oxoisoindolin-2-yl)piperidine-2,6-dione], the values for the DC50 in assay [1] and in assay [2] were > 10000 nM and 55 nM, respectively. Moreover, the Dmax in assay [1] is 7%; in assay [2] it was 70%.
With `O=C1CCC(N2Cc3cc(-c4cc(CNCC5CCCO5)ccn4)ccc3C2=O)C(=O)N1` (stereo not drawn) [Example 66, 3-(1-oxo-5-(4-((((tetrahydrofuran-2-yl)methyl)amino)methyl)pyridin-2-yl)isoindolin-2-yl)piperidine-2,6-dione], the DC50 in assay [1] and in assay [2] was > 10000 nM in each case. Besides, the Dmax in assay [1] turned out to be 7%; in assay [2], 26%.
In the case of `COc1ccc(CNCc2ccnc(-c3ccc4c(c3)CN(C3CCC(=O)NC3=O)C4=O)c2)cc1` (stereo not drawn) [Example 67, 3-(5-(4-(((4-methoxybenzyl)amino)methyl)pyridin-2-yl)-1-oxoisoindolin-2-yl)piperidine-2,6-dione], in assay [1], the DC50 is > 10000 nM and the Dmax was found to be 6%. Further, in assay [2], the DC50 is > 10000 nM and the Dmax amounted to 41%.
Consider `COCCNCc1ccnc(-c2ccc3c(c2)CN(C2CCC(=O)NC2=O)C3=O)c1` (stereo not drawn) [Example 68, 3-(5-(4-(((2-methoxyethyl)amino)methyl)pyridin-2-yl)-1-oxoisoindolin-2-yl)piperidine-2,6-dione], for which, in assay [1], the DC50 is > 10000 nM and the Dmax was found to be 15%. In addition, in assay [2], the DC50 is 192 nM and the Dmax stood at 71%.
In the case of `C[C@H]1CCCN1Cc1ccnc(-c2ccc3c(c2)CN(C2CCC(=O)NC2=O)C3=O)c1` (stereo partly drawn) [Example 69, 3-(5-(4-(((S)-2-methylpyrrolidin-1-yl)methyl)pyridin-2-yl)-1-oxoisoindolin-2-yl)piperidine-2,6-dione], in assay [1], the DC50 was > 10000 nM and the Dmax came out at 0%. Moreover, in assay [2], it took 783 nM to reach half-maximal degradation (DC50) and the Dmax was found to be 57%.
Turning to `C[C@@H]1CCN(Cc2ccnc(-c3ccc4c(c3)CN(C3CCC(=O)NC3=O)C4=O)c2)C1` (stereo partly drawn) [Example 70, 3-(5-(4-(((R)-3-methylpyrrolidin-1-yl)methyl)pyridin-2-yl)-1-oxoisoindolin-2-yl)piperidine-2,6-dione], the DC50 in assay [1] was > 10000 nM; in assay [2], 19 nM. The values for the Dmax in assay [1] and in assay [2] were 10% and 79%, respectively.
